The text below walks through data of patent US20090298178A1, “GROWTH FACTORS FOR PRODUCTION OF DEFINITIVE ENDODERM” (priority 2008, published 2009).

Data set [1] concerns hES cells (CyT49; passage 35). The data set is described as follows: Differentiation of hES cells to definitive endoderm with activin A plus Wnt3a or GSK3 inhibitors, real-time quantitative PCR at 48 hours (Example 4). The data set is classed as cell-based, human. The conditions noted are these: with 100 ng/mL activin A; inhibitor at 10 or 100 nM; FIG. 6A-B. As for the experimental part:
Undifferentiated hES cells (CyT49; passage 35) were maintained substantially as described in Example 1 above. Ten hES cell culture plates were then differentiated in RPMI (Mediatech) supplemented with Glutamax, penicillin/streptomycin, and varying concentrations of defined FBS (HyClone). FBS concentrations were 0% for the first 24 h and 0.2% for the second 24 h. Additionally, 0.1% BSA (Invitrogen/Gibco) was added on the first day only. All plates received 100 ng/mL activin A for both days. […] Replicate samples were collected from each culture condition at 48 hours after differentiation commenced and analyzed for relative gene expression using real-time quantitative PCR.

In another data set the test system is hES cells (CyT49). Put plainly: Further differentiation of definitive endoderm to pancreatic endoderm and endocrine cells, real-time PCR at day 9 (Example 2). The data set is classed as cell-based, human. Conditions: definitive endoderm produced with 100 ng/mL factor, compared with activin A, FIG. 3. Here is the method: (§1) Human ES cell cultures were maintained and differentiated substantially as described above in Example 1, and further differentiated to foregut endoderm (stage 2) and then onto pancreatic endoderm and pancreatic endocrine cells (stages 3 and 4). After 48 hours of differentiation to definitive endoderm (stage 1) the cells were briefly washed in PBS+/+ and then further differentiated in RPMI supplemented with 0.2% FBS, Insulin-Transferrin-Selenium (1:1000), Glutamax, penicillin/streptomycin, and 25 ng/mL KGF (R&D Systems) for 3 days. On the first day of stage 2, the culture also received TGF-beta inhibitor No. 4 (3-(6-Methylpyridin-2-yl)-4-(4-quinolyl)-1-phenylthiocarbamoyl-1H-pyrazole) at 2.5 uM (EMD Bioscience). After three days in stage 2 the cells were then differentiated for one day in DMEM with B27 supplement (1:100) containing all-trans retinoic acid (RA) at 0.2 uM and KAAD-cyclopamine at 0.25 uM. Following the single day of retinoid exposure, the cells were cultured in DMEM with B27 (1:100) containing noggin at 40 ng/ml. At day 9 of total differentiation, replicate samples were collected from each culture condition and analyzed for relative gene expression using real-time quantitative PCR.

Data set [2] relates to hES cells (CyT49; passage 41). The data set is described as follows: Differentiation of hES cells to definitive endoderm (stage 1) with TGF-beta member growth factors, real-time quantitative PCR (Example 1). The data set is classed as cell-based, human. Conditions: for effectiveness for induction of definitive endoderm differentiation derived from hES cells: compared with activin A; for fold induction of SOX17 gene expression as compared to undifferentiated hESCs / fold induction of FOXA2 gene expression as compared to undifferentiated hESCs: 100 ng/ml factor, 75 ng/mL Wnt3a on first day, day 2 of differentiation; for fold induction of SOX17 gene expression as compared to undifferentiated hESCs: FIG. 2C; for efficiency in generating definitive endoderm cell populations: sufficient amounts, compared to Activin A and activin B. The source says: Human embryonic stem (hES) cells were differentiated in vitro to definitive endoderm (stage 1) for about 2-4 days substantially as described in D'Amour et al. 2006 Nat Biotechnol 24(11):1392-401 and U.S. Patent Application Publication Number 2007/0154984, which are herein incorporated in their entireties. Briefly, undifferentiated human embryonic stem (hES) cells were maintained on mouse embryo fibroblast feeder layers (Millipore, formerly Chemicon or Specialty Media) or on human serum coated plates (Valley Biomedical) in DMEM/F12 (Mediatech) supplemented with 20% KnockOut serum replacement (Invitrogen/Gibco), 1 mM nonessential amino acids (Invitrogen/Gibco), Glutamax (Invitrogen/Gibco), penicillin/streptomycin (Invitrogen/ Gibco), 0.55 mM 2-mercaptoethanol (Invitrogen/Gibco) and 4 ng/ml to 20 ng/mL recombinant human FGF2 (R&D Systems). Low dosages of Activin A (10-25 ng/ml, R&D Systems) were added to the growth culture medium to help maintain undifferentiated growth. Cultures were either manually passaged, or enzymatically passaged using 5 ug/mL dispase (Invitrogen/Gibco), or passaged using Accutase (Innovative Cell Technologies #AT104) at 1:4-1:15 split ratios every 3-7 days. Before initiating differentiation, hES cells were given a brief wash in PBS+/+ (PBS+/+ refers to PBS containing both calcuim and magnesium) (Mediatech).
Four hES cell culture plates (CyT49; passage 41) were then differentiated in RPMI (Mediatech) supplemented with Glutamax, penicillin/streptomycin, and with either: i) 100 ng/mL activin A, ii) 100 ng/mL of activin B (R&D Systems), iii) 100 ng/mL of GDF8, or iv) 100 ng/mL of GDF11 (R&D Systems) and varying concentrations of defined FBS (HyClone). Additionally, 0.1% BSA (Invitrogen/Gibco) and 75 ng/mL Wnt3a (R&D Systems) were added on the first day (d0) of differentiation. FBS concentrations were 0% for the first 24 h and 0.2% for the second 24 h. Replicate samples were collected from each culture condition at 0, 24 and 48 hours after differentiation commenced and analyzed for relative gene expression using real-time quantitative PCR.

Data set [3] has as its system hES cells (CyT49; passage 48). The data set is described as follows: Differentiation of hES cells with other TGF-beta family member proteins, real-time quantitative PCR (Example 3). The data set is classed as cell-based, human. Conditions: for CDX2 induction level, fold higher expression over that observed with the activin A treatment: GDF3 500 ng/ml, TGF-beta3 100 ng/mL, FIG. 4C. Here is the method: Undifferentiated human embryonic stem (hES) cells (CyT49; passage 48) were maintained substantially as described in Example 1 above. Seven hES cell culture plates were then differentiated in RPMI (Mediatech) supplemented with Glutamax, penicillin/streptomycin, and either: i) activin A (100 ng/ml), ii) TGF-beta1 (100 ng/ml), iii) TGF-beta3 (100 ng/mL), iv) TGF-beta2 (200 ng/ml), v) GDF3 (500 ng/ml), vi) GDF9 (4 ug/ml), or vii) GDF15 (2.5 ug/ml) and varying concentrations of defined FBS (HyClone). Additionally, 0.1% BSA (Invitrogen/Gibco) and 75 ng/mL Wnt3a (R&D Systems) were added on the first day (d0) of differentiation. FBS concentrations were 0% for the first 24 h and 0.2% for the second 24 h. Replicate samples were collected from each culture condition at 0, 24 and 48 hours after differentiation commenced and analyzed for relative gene expression using real-time quantitative PCR.

Data set [4] relates to hES cells (CyT49; passage 48). The data set is described as follows: Further differentiation to pancreatic endoderm and endocrine cells, real-time PCR at 12 days (Example 3). The class given is cell-based, human. The conditions noted are these: 12 days of differentiation. As for the experimental part: as §1
Such conditions are described in Example 2 above. In this example, however, the stage 4 noggin treatment lasted for 6 days and replicate samples were taken for real-time PCR analysis at a total of 12 days of differentiation as compared to 9 days of differentiation in Example 2. […] Similarly, the pancreatic endoderm or endocrine cells expressing endocrine markers NKX2-2 and INS were typically not detected in the non-activin A treated plates (FIG. 5C-D). Stated another way, the activin A treated plates were 1200-fold or more higher in expression of these markers than the non-Activin A treated plates.
For orientation: Real-time PCR tracks product formation cycle by cycle.

For a further data set, the system named is hES cells. Conditions: McLean et al. Stem Cells 25:29-38 2007; cited from earlier work.

Regarding `COc1ccc(CNC(=O)Nc2ncc([N+](=O)[O-])s2)cc1` [GSK3 inhibitor No. 8], in data set [1], the “differentiation of hES cells to definitive endoderm” value is on record as “Neither GSK3 inhibitor No. 9 (“BIO”) nor GSK3 inhibitor No. 8 (GVIII) at 10 or 100 nM resulted in substantial differentiation”.
In the case of `O=C1Nc2cc(Br)ccc2/C1=C1/Nc2ccccc2/C1=N\O` [GSK3 inhibitor No. 9], the “differentiation of hES cells to definitive endoderm” value in data set [1] is “Neither GSK3 inhibitor No. 9 (“BIO”) nor GSK3 inhibitor No. 8 (GVIII) at 10 or 100 nM resulted in substantial differentiation”.
Turning to “GDF8: TGF-beta family member, also referred to as myostatin”, in the data set with hES cells (CyT49), the “subsequent differentiation of definitive endoderm to pancreatic endoderm expressing PDX1 and PTF1A or endocrine cells expressing NKX2-2” value (“subsequent differentiation” for short) is given as “as effective”. In addition, the “effectiveness for induction of definitive endoderm differentiation derived from hES cells” value in data set [2] (100 ng/mL) is “as effective as activin A”. In addition, in data set [2], the “fold induction of SOX17 gene expression as compared to undifferentiated hESCs” value worked out at 1324 fold and the “efficiency in generating definitive endoderm cell populations” value is “more efficient compared to activin B”. For the same molecule, the “fold induction of FOXA2 gene expression as compared to undifferentiated hESCs” value in data set [2] (FIG. 2D) is given as 438 fold.
For “GDF11: TGF-beta family member with approximately 90% identity to myostatin”, in the data set with hES cells (CyT49), the “subsequent differentiation” value was “as effective”. Besides, the “effectiveness for induction of definitive endoderm differentiation derived from hES cells” value in data set [2] (100 ng/mL) is on record as “as effective as activin A”. Moreover, in data set [2], the “fold induction of SOX17 gene expression as compared to undifferentiated hESCs” value is 1306 fold and the “efficiency in generating definitive endoderm cell populations” value is on record as “more efficient compared to activin B”. In addition, the “fold induction of FOXA2 gene expression as compared to undifferentiated hESCs” value in data set [2] (FIG. 2D) is 382 fold.
For the molecule “activin A: TGF-beta family growth factor used at 100 ng/mL to produce definitive endoderm”, the “definitive endoderm production as indicated by induction of SOX17 and CER1 gene expression” value in data set [3] (activin A 100 ng/ml, other ligands 100 ng/ml to 4 ug/ml, 75 ng/mL Wnt3a on first day, FIG. 4A-B) is reported as “definitive endoderm was produced only in the activin A treatment condition”. Moreover, the “expression of endocrine markers NKX2-2 and INS, fold higher than the non-Activin A treated plates” value in data set [4] (FIG. 5C-D) was ≥ 1200 fold. The “production of pancreatic endoderm and endocrine cell types as indicated by induction of PDX1, PTF1A, NKX2-2 and INS gene expression” value in data set [4] (FIGS. 5A-D) is on record as “produced only in the activin A treatment condition”. Besides, the “PDX1 expression level, fold higher in the presence of activin A as compared to GDF15” value in data set [4] (comparator GDF15, FIG. 5A) is given as 14,497 fold. Also, the “PDX1 expression level, fold higher in the presence of activin A as compared to TGF-beta1” value in data set [4] (comparator TGF-beta1, FIG. 5A) stood at 1413 fold.
For the molecule “insulin: protein that binds to the insulin receptor and can induce signaling”, the “insulin concentration detrimental for the production of definitive endoderm cells from hES cells” value with hES cells was ≥ 0.2 µg/mL.

B1: GDF3: TGF-beta family member also known as Vg-related gene 2 (protein, UniProt Q9NR23 251-364, looked up)
Growth/differentiation factor …: AAIPVPKLSCKNLCHRHQLFINFRDLGWHKWIIAPKGFMANYCHGECPFSLTISLNSSNYAFMQALMHAVDPEIPQAVCIPTKLSPISMLYQDNNDNVILRHYEDMVVDECGCG
In the case of B1, the “CDX2 induction level, fold higher expression over that observed with the activin A treatment” value in data set [3] was determined as 900 fold.

B2: TGF-beta3: isoform of transforming growth factor beta (protein, UniProt P10600 301-412, looked up)
Transforming growth factor …: ALDTNYCFRNLEENCCVRPLYIDFRQDLGWKWVHEPKGYYANFCSGPCPYLRSADTTHSTVLGLYNTLNPEASASPCCVPQDLEPLTILYYVGRTPKVEQLSNMVVKSCKCS
As for B2, the “CDX2 induction level, fold higher expression over that observed with the activin A treatment” value in data set [3] is on record as 2,667 fold.

B3: activin B: TGF-beta family growth factor (R&D Systems) (protein, UniProt P09529 293-407, looked up)
Inhibin beta B chain: GLECDGRTNLCCRQQFFIDFRLIGWNDWIIAPTGYYGNYCEGSCPAYLAGVPGSASSFHTAVVNQYRMRGLNPGTVNSCCIPTKLSTMSMLYFDDEYNIVKRDVPNMIVEECGCA
With B3, the “subsequent differentiation” value in the data set on hES cells (CyT49) was “less effective”. In addition, in data set [2] (100 ng/mL, FIG. 2B, indicates mesoderm differentiation), the “expression of ISL1 as compared to activin A treated cultures” value was “higher expression”. The “FOXA2 induction (in words)” value in data set [2] (100 ng/mL, FIG. 2D) was “lower”.
